From PubChem BioAssay AID256 (DTP/NCI, 2004) come the findings set out here.

Molecules are shown by their SMILES. Where “and” joins values, the source holds several entries; their conditions need not be identical. Equal values may be shown once. Inconclusive results and toxic doses are left out.

The experiment has as its system CD2F1 mice, L1210 leukemia ip, survival T/C. The experiment can be described thus: NCI In Vivo Anticancer Drug Screen. Data for tumor model L1210 Leukemia (intraperitoneal) in CD2F1 (CDF1) mice. The note with it: higher = longer survival. In short, it runs like this:
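In this screen, transplantable tumors were grown in mice given either the compound or its vehicle. Results were expressed as the treated measurement relative to the control measurement.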

[1] abbreviates: endpoint: mean survival time, dose: 100.0 mg/kg/injection, schedule: Q01DX001 (ip), vehicle: saline with Tween-80.
The mark [2] stands for this setting: endpoint: mean survival time, dose: 100.0 mg/kg/injection, schedule: Q04DX002 (ip), vehicle: saline with Tween-80.
Where [3] appears, read: endpoint: mean survival time, dose: 200.0 mg/kg/injection, schedule: Q01DX001 (ip), vehicle: saline with Tween-80.
Where [4] appears, read: endpoint: mean survival time, dose: 200.0 mg/kg/injection, schedule: Q04DX002 (ip), vehicle: saline with Tween-80.
Setting [5] is: endpoint: mean survival time, dose: 400.0 mg/kg/injection, schedule: Q01DX001 (ip), vehicle: saline with Tween-80.
The mark [6] stands for this setting: endpoint: mean survival time, dose: 400.0 mg/kg/injection, schedule: Q04DX002 (ip), vehicle: saline with Tween-80.
The mark [7] stands for this setting: endpoint: mean survival time, dose: 25.0 mg/kg/injection, schedule: Q01DX009 (ip), vehicle: saline with Tween-80.
Where [8] appears, read: endpoint: mean survival time, dose: 50.0 mg/kg/injection, schedule: Q01DX009 (ip), vehicle: saline with Tween-80.
[9] abbreviates: endpoint: mean survival time, dose: 100.0 mg/kg/injection, schedule: Q01DX009 (ip), vehicle: saline with Tween-80.
The mark [10] stands for this setting: endpoint: mean survival time, dose: 200.0 mg/kg/injection, schedule: Q01DX009 (ip), vehicle: saline with Tween-80.
[11] abbreviates: endpoint: mean survival time, dose: 100.0 mg/kg/injection, schedule: Q04DX003 (ip), vehicle: saline with Tween-80.
Setting [12] is: endpoint: mean survival time, dose: 200.0 mg/kg/injection, schedule: Q04DX003 (ip), vehicle: saline with Tween-80.
[13] abbreviates: endpoint: mean survival time, dose: 400.0 mg/kg/injection, schedule: Q04DX003 (ip), vehicle: saline with Tween-80.
The mark [14] stands for this setting: endpoint: mean survival time, dose: 400.0 mg/kg/injection, schedule: Q01DX009 (ip), vehicle: saline with Tween-80.
Setting [15] is: endpoint: mean survival time, dose: 75.0 mg/kg/injection, schedule: Q01DX001 (ip), vehicle: saline.
The mark [16] stands for this setting: endpoint: mean survival time, dose: 150.0 mg/kg/injection, schedule: Q01DX001 (ip), vehicle: saline.
[17] abbreviates: endpoint: mean survival time, dose: 300.0 mg/kg/injection, schedule: Q01DX001 (ip), vehicle: saline.
Where [18] appears, read: endpoint: mean survival time, dose: 100.0 mg/kg/injection, schedule: Q04DX002 (ip), vehicle: saline.
The mark [19] stands for this setting: endpoint: mean survival time, dose: 25.0 mg/kg/injection, schedule: Q04DX002 (ip), vehicle: saline with Tween-80.

In the case of `COC(=O)CC1(C(=O)OC)NC(=O)c2cc(OC)c(Cl)cc2N1` (stereo not given), the T/C is 88 % of control under setting [1]; 96 % of control under setting [2]; 94 % of control under setting [3]; 96 % of control under setting [4]; 95 % of control under setting [5]; 86 % of control under setting [6].
Regarding `COc1cc(OC)c(NC(=O)Oc2ccc(Br)cc2Br)cc1Cl`, the T/C reads like this: (endpoint: mean survival time, dose: 12.5 mg/kg/injection, schedule: Q01DX009 (ip), vehicle: saline with Tween-80) 92 % of control; under setting [7], 100 % of control; under setting [8], 94 % of control and 107 % of control; under setting [9], 94 % of control; under setting [10], 90 % of control.
On to `OCC1OC(c2nnc3c4ccccc4cnn23)C(O)C1O` (stereo not given), for which the T/C (endpoint: mean survival time, dose: 10.94 mg/kg/injection, schedule: Q01DX005 (ip), vehicle: water) is 100 % of control; the T/C (endpoint: mean survival time, dose: 11.25 mg/kg/injection, schedule: Q01DX005 (ip), vehicle: water) was 96 % of control; the T/C (endpoint: mean survival time, dose: 21.88 mg/kg/injection, schedule: Q01DX005 (ip), vehicle: water) is 94 % of control; the T/C (endpoint: mean survival time, dose: 22.5 mg/kg/injection, schedule: Q01DX005 (ip), vehicle: water) is 94 % of control; the T/C (endpoint: mean survival time, dose: 43.75 mg/kg/injection, schedule: Q01DX005 (ip), vehicle: water) is 93 % of control; the T/C (endpoint: mean survival time, dose: 45.0 mg/kg/injection, schedule: Q01DX005 (ip), vehicle: water) was 90 % of control. Also, the T/C reads like this: (endpoint: mean survival time, dose: 87.5 mg/kg/injection, schedule: Q01DX005 (ip), vehicle: water) 94 % of control; (endpoint: mean survival time, dose: 90.0 mg/kg/injection, schedule: Q01DX005 (ip), vehicle: water) 96 % of control; (endpoint: mean survival time, dose: 175.0 mg/kg/injection, schedule: Q01DX005 (ip), vehicle: water) 93 % of control; (endpoint: mean survival time, dose: 180.0 mg/kg/injection, schedule: Q01DX005 (ip), vehicle: water) 94 % of control.
With `CC(=O)OCCOCCOCc1ccccc1`, the T/C was 96 % of control (endpoint: mean survival time, dose: 100.0 mg/kg/injection, schedule: Q01DX001 (ip), vehicle: other); 102 % of control (endpoint: mean survival time, dose: 200.0 mg/kg/injection, schedule: Q01DX001 (ip), vehicle: other); 98 % of control (endpoint: mean survival time, dose: 400.0 mg/kg/injection, schedule: Q01DX001 (ip), vehicle: other).
On to `CCN1CCCC(Nc2nc(Nc3ccc(Cl)c(Cl)c3)nc3ccc(Cl)cc23)C1` (stereo not given), for which the T/C was 89 % of control under setting [11] and 94 % of control under setting [12].
With `CCO/C=C1\SC(=S)N(c2cccc(OC)c2)C1=O`, the T/C by setting is: under setting [11], 96 % of control; under setting [12], 106 % of control; under setting [13], 101 % of control.
The like results for `C1CCC2(CCC34CCCCC3CCCC4)CCCCC2C1` (stereo not given) were, in that order, 101 % of control, 102 % of control and 102 % of control.
Regarding `O=C(O)C1C2CCC1C(O)C2` (stereo not given), the T/C is 94 % of control under setting [9], 94 % of control under setting [10] and 88 % of control under setting [14].
With `CCN(CC)CCCC(C)Nc1nnc2c(=O)n(C)c(=O)n(C)c2n1` (stereo not given), the T/C is 95 % of control under setting [15], 93 % of control under setting [16] and 87 % of control under setting [17].
In the case of `O=c1[nH]c(=O)n(C2CC(O)C(CO)O2)cc1S` (stereo not given), the T/C (endpoint: mean survival time, dose: 12.5 mg/kg/injection, schedule: Q01DX005 (ip), vehicle: water) was 107 % of control; the T/C (endpoint: mean survival time, dose: 25.0 mg/kg/injection, schedule: Q01DX005 (ip), vehicle: water) was 117 % of control; the T/C (endpoint: mean survival time, dose: 50.0 mg/kg/injection, schedule: Q01DX005 (ip), vehicle: water) is 112 % of control; the T/C (endpoint: mean survival time, dose: 100.0 mg/kg/injection, schedule: Q01DX005 (ip), vehicle: water) is 122 % of control; the T/C (endpoint: mean survival time, dose: 133.0 mg/kg/injection, schedule: Q01DX005 (ip), vehicle: water) was 121 % of control; the T/C (endpoint: mean survival time, dose: 200.0 mg/kg/injection, schedule: Q01DX005 (ip), vehicle: water) was 111 % of control. In addition, where the note is “endpoint: mean survival time, dose: 300.0 mg/kg/injection, schedule: Q01DX005 (ip), vehicle: water”, the T/C was 115 % of control.
Take `Clc1ccc(OCc2sc3ccc(Cl)cc3c2CN2CCCCC2)cc1`: the T/C under setting [7] was 100 % of control, the T/C under setting [8] is 97 % of control and the T/C under setting [9] is 95 % of control.
As to `NC(=S)c1ncn(C2OC(CO)C(O)C2O)c1N` (stereo not given), the T/C is 115 % of control under setting [18]; 110 % of control (endpoint: mean survival time, dose: 200.0 mg/kg/injection, schedule: Q04DX002 (ip), vehicle: saline); 111 % of control (endpoint: median survival time, dose: 25.0 mg/kg/injection, schedule: Q01DX005 (ip), vehicle: saline with Tween-80); 113 % of control (endpoint: median survival time, dose: 25.0 mg/kg/injection, schedule: Q01DX005 (ip), vehicle: saline); 122 % of control (endpoint: median survival time, dose: 25.0 mg/kg/injection, schedule: Q01DX009 (ip), vehicle: saline with Tween-80); 115 % of control (endpoint: median survival time, dose: 25.0 mg/kg/injection, schedule: Q01DX009 (ip), vehicle: saline). Besides, the T/C is 120 % of control (endpoint: median survival time, dose: 50.0 mg/kg/injection, schedule: Q01DX005 (ip), vehicle: saline with Tween-80); 166 % of control (endpoint: median survival time, dose: 100.0 mg/kg/injection, schedule: Q01DX005 (ip), vehicle: saline); 160 % of control (endpoint: median survival time, dose: 100.0 mg/kg/injection, schedule: Q01DX009 (ip), vehicle: saline with Tween-80); 171 % of control (endpoint: median survival time, dose: 200.0 mg/kg/injection, schedule: Q01DX005 (ip), vehicle: saline with Tween-80); 166 % of control (endpoint: median survival time, dose: 200.0 mg/kg/injection, schedule: Q01DX005 (ip), vehicle: saline); 159 % of control (endpoint: median survival time, dose: 200.0 mg/kg/injection, schedule: Q01DX009 (ip), vehicle: saline with Tween-80). Also, the T/C is 157 % of control (endpoint: median survival time, dose: 200.0 mg/kg/injection, schedule: Q01DX009 (ip), vehicle: saline); 161 % of control (endpoint: median survival time, dose: 400.0 mg/kg/injection, schedule: Q01DX005 (ip), vehicle: saline with Tween-80); 180 % of control (endpoint: median survival time, dose: 400.0 mg/kg/injection, schedule: Q01DX005 (ip), vehicle: saline); 160 % of control (endpoint: median survival time, dose: 400.0 mg/kg/injection, schedule: Q01DX009 (ip), vehicle: saline with Tween-80); 155 % of control (endpoint: median survival time, dose: 400.0 mg/kg/injection, schedule: Q01DX009 (ip), vehicle: saline).
For `N#C/C(=C\c1c[nH]c2ccccc12)C(N)=O`, the T/C (endpoint: mean survival time, dose: 100.0 mg/kg/injection, schedule: Q01DX009 (ip), vehicle: other) was 93 % of control; the T/C under setting [9] is 97 % of control; the T/C under setting [10] was 92 % of control; the T/C (endpoint: mean survival time, dose: 400.0 mg/kg/injection, schedule: Q01DX009 (ip), vehicle: other) was 88 % of control; the T/C under setting [14] is 97 % of control.
Regarding `Nc1ccccc1NS(=O)(=O)c1ccc(Cl)cc1`, the T/C under setting [9] is 95 % of control, the T/C under setting [10] was 101 % of control and the T/C under setting [14] was 106 % of control.
Turning to `c1ccc2sc(SCCSc3nc4ccccc4s3)nc2c1`, the T/C was 107 % of control under setting [19], 88 % of control under setting [2], 87 % of control under setting [4] and 87 % of control under setting [6].
Turning to `CC1=NCCCN=C(C)CC[N-]CCC[N-]CC1.[Ni+2].[O-][Cl+3]([O-])([O-])O`, the T/C reads like this: under setting [19], 103 % of control; (endpoint: mean survival time, dose: 50.0 mg/kg/injection, schedule: Q04DX002 (ip), vehicle: saline with Tween-80) 115 % of control; under setting [2], 103 % of control; under setting [18], 124 % of control.
Regarding `O=C(NC1CCCC2CCCCC21)c1ccccc1` (stereo not given), the T/C runs as follows: under setting [1], 90 % of control; under setting [3], 88 % of control; under setting [5], 90 % of control.
Consider `CC12CCC(C(CO)C1=O)C2(C)C` (stereo not given), for which the T/C is, setting by setting: under setting [15], 98 % of control; under setting [16], 98 % of control; under setting [17], 98 % of control.
Regarding `C=CCOCC(O)CNc1ccccc1` (stereo not given), the T/C is 101 % of control under setting [8], 101 % of control under setting [9] and 96 % of control under setting [10].
